US20250170101A1, “MONOACYLGLYCEROL LIPASE INHIBITORS AND USE THEREOF FOR THE TREATMENT AND MANAGEMENT OF PAIN AND RELATED CONDITIONS” (Psy Therapeutics, Inc., priority 2021, published 2025)

These compounds were tested against T1, MAGL enzyme (Homo sapiens, UniProt Q99685) (assay: MAGL reversible inhibition assay (washout), Example 22). Conditions: pre-washout compound concentration 1 μM.
T1 sequence (Q99685 1-303): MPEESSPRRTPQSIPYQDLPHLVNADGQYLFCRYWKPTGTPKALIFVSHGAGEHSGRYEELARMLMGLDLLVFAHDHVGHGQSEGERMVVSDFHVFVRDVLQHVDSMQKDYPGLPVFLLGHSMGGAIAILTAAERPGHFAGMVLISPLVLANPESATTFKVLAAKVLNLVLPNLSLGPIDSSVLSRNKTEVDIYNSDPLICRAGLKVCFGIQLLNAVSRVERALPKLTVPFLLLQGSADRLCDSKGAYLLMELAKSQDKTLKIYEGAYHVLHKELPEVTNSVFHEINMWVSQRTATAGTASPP
Type: biochemical
Design: % MAGL activity returning after washout: concentration or dose not given beside the values
Experimental: The reversible mechanism of MAGL inhibition of a test compound of Formula (I) can be determined. Flag-tagged MAGL enzyme will be immobilized on anti-Flag beads. Immobilized enzyme will be incubated+/−inhibitor at a dose that produces complete inhibition. Colorimetric substrate (4-NPA) will be added and the reaction monitored on a plate reader for 30 minutes to verify complete inhibition. Immobilized enzyme will then be washed thoroughly to remove the inhibitor, and fresh substrate will be added. The reaction will be monitored for an additional 30 minutes; returning enzymatic activity will indicate reversibility of inhibition. […]
For some test compounds, % activity returning after washout may be less than 100%/if complete compound unbinding takes longer than 30 minutes.

Row | Structure (SMILES) | degree to which MAGL enzymatic activity returned following washout of test compounds
1 | Cc1cnn(C2CC3(C2)CN(C(=O)c2cc(O)ccc2F)C3)c1-c1cc(F)ccc1Cl (single isomer, unassigned) [Compound 519, {6-[5-(2-chloro-5-fluorophenyl)-4-methyl-1-pyrazolyl]-2-aza-2-spiro[3.3]heptyl}(2-fluoro-5-hydroxyphenyl)methanone] | 155

Same assay, conditions: relative to control (no inhibitor before washout), immediately following 30 minute washout

Row | Structure (SMILES) | % MAGL activity returning after washout
2 | Cc1cnn(C2CC3(C2)CN(C(=O)c2cc(O)ccc2F)C3)c1-c1cc(F)ccc1Cl (single isomer, unassigned) [Compound 519, {6-[5-(2-chloro-5-fluorophenyl)-4-methyl-1-pyrazolyl]-2-aza-2-spiro[3.3]heptyl}(2-fluoro-5-hydroxyphenyl)methanone] | >50%

These compounds were tested against T2, human recombinant FAAH (Homo sapiens, UniProt O00519) (assay: FAAH counter screen (Cayman FAAH Inhibitor Screening Assay Kit), Example 21). Conditions: Method A: starting concentration of 100 μM.
T2 construct: purchased Cayman kit Item No. 10005196; FAAH enzyme 700302
T2 sequence (O00519 1-579): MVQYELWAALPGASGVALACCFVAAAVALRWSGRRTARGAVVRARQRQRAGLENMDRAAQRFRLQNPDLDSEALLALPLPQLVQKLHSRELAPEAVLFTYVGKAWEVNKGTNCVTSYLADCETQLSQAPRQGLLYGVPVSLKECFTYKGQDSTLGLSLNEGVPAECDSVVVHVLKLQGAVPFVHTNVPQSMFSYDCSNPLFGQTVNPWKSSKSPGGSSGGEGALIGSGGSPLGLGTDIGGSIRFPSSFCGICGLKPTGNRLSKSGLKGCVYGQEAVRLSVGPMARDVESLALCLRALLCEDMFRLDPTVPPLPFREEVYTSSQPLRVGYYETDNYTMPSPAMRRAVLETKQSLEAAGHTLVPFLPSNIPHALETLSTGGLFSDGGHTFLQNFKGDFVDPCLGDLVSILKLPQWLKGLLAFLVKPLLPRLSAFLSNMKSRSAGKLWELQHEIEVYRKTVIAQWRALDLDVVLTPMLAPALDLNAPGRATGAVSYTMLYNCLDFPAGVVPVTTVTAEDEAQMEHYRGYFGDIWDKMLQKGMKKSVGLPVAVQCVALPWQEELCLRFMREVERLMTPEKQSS
Type: biochemical
Experimental: Comparative compound potency at FAAH can be obtained with the following assay.
MAGL inhibitor compounds were also counter-screened for FAAH inhibition potency using the following assay. Assessment of FAAH inhibition was performed using Fatty Acid Amide Hydrolase Inhibitor Screening Assay Kit (Cayman Item No. 10005196) following manufacture's instruction with some modifications. The kit utilizes human recombinant FAAH and the fluorescent substrate, AMC Arachidonoyl amide (AAMCA). 5 μL of assay buffer (125 mM Tris, pH 9.0, 1 mM EDTA, i.e. ethylenediaminetetraacetic acid) was added to a 384-well black plate (Corning, 3573). Test compounds and control inhibitor JZL-195 (Cayman Chemical, 13668) were tested in 10-concentration IC50 mode with 3-fold serial dilution at a starting concentration of 100 μM and 10 μM, respectively. 300 nL or 30 nL of test compounds were delivered into a 384-well black plate (Corning, 3573) using a Labcyte Echo, followed by addition of 15 μL of FAAH enzyme (Cayman, 700302) in assay buffer. After a 5-minute pre-incubation at room temperature, 10 μL of AAMCA was added in assay buffer to start the reaction. Final concentration of FAAH enzyme is not specified and AAMCA substrate was used at the 20 uM. After these dilutions, the final concentration of the test compounds ranged from 100 μM to 5.08 nM or 10 μM down to 0.508 nM. The reaction was allowed to progress for 60 minutes, while the plate was read on an Envision plate reader at an Ex/Em of 350/460 nm with readings every minute. The data was analyzed in Microsoft Excel, using the slope between 30 and 59 minutes. The average of the no-enzyme wells (background) was subtracted from the data. The background-subtracted slope data was converted to % activity using the average of wells with enzyme and DMSO vehicle. IC50 values were calculated using GraphPad software (Sigmoidal dose response, variable slope equation).
Compounds listed in Table D2 were tested in the FAAH Counterscreen of Example 21

Row | Structure (SMILES) | IC50
3 | COc1ccc(F)c(C(=O)N2CC3(CC(c4cc(C)nn4-c4ccccc4C)C3)C2)c1 [Compound 123, (2-fluoro-5-methoxyphenyl)(6-(3-methyl-1-(o-tolyl)-1H-pyrazol-5-y1)-2-azaspiro[3.3]heptan-2-yl)methanone] | > 10 µM
4 | O=C(Nc1cccnc1)N1CCC(Cc2cccc(Oc3ccc(C(F)(F)F)cn3)c2)CC1 [reference compound] | 0.014 µM
5 | Cc1cc(C2CC3(C2)CN(C(=O)c2ccccc2F)C3)n(-c2ccccc2C)n1 [Compound 122, (2-fluorophenyl)(6-(3-methyl-1-(o-tolyl)-1H-pyrazol-5-yl)-2-azaspiro[3.3]heptan-2-yl)methanone] | > 10 µM
6 | Cc1ccccc1-n1nc(C2CC3(C2)CN(C(=O)c2cc(O)ccc2F)C3)cc1C [Compound 117] | > 10 µM
7 | Cc1cc(C2CC3(C2)CN(C(=O)c2c(F)ccc(O)c2F)C3)n(-c2ccccc2C)n1 [Compound 127, (2,6-difluoro-3-hydroxyphenyl)(6-(3-methyl-1-(o-tolyl)-1H-pyrazol-5-yl)-2-azaspiro[3.3]heptan-2-yl)methanone] | > 10 µM

The compounds below were run against T3, human MAGL (Homo sapiens, UniProt Q99685) (assay: MAGL inhibition potency (IC50) with 4NPA substrate, Example 20, methods of Table C). Conditions: not given.
T3 construct: recombinant MAGL enzyme (aa 2-303 RBC, internal preparation)
T3 sequence (Q99685 2-303): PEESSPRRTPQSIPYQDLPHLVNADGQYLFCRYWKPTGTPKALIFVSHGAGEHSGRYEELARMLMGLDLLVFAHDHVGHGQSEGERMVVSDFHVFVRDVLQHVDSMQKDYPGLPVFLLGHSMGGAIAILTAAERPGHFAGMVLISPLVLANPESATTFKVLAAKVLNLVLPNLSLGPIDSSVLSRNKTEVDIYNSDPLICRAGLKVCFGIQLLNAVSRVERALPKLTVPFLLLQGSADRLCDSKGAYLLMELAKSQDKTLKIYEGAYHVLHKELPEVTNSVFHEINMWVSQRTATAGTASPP
Type: biochemical
Text: Cayman's Monoacylglycerol Lipase Inhibitor Screening Assay provides a method for screening human MAGL inhibitors. MAGL hydrolyzes 4-nitrophenylacetate resulting in a yellow product, 4-nitrophenol, with an absorbance of 405-412 nm. The monoacylglycerol lipase inhibitor screening assay kit from Cayman Chemical was used to measure the MAGL potency for the compounds in Table 4 and Table 5. Cayman's Monoacylglycerol Lipase Inhibitor Screening Assay provides a method for screening human MAGL inhibitors. MAGL hydrolyzes 4-nitrophenylacetate resulting in a yellow product, 4-nitrophenol, with an absorbance of 405-412 nm. MAGL Inhibition was measured by the following assay. Monoacylglycerol Lipase (MAGL) inhibition was measured using recombinant MAGL enzyme (aa 2-303 RBC, internal preparation) and the substrate 4-Nitrophenyl acetate (4NPA) (Sigma-Aldrich, N8130). Hydrolysis of the substrate in the presence of the enzyme was measured by absorbance at 405 nm. 10 μL of assay buffer (10 mM Tris pH 7.5, 1 mM EDTA, 0.9% DMSO) was added to a black 384-well non-binding plate with clear bottom (Greiner, 781906) for each reaction. […] DMSO control wells were included for reference. A 10.8 nM (1.8×) MAGL mix in assay buffer was prepared, with 25 μL added to each reaction well, for a final assay concentration of 6 nM. No enzyme wells received 25 μL of buffer. Plate was incubated at room temperature for 30 minutes. 35 mM solution of 4NPA in methanol was prepared daily. A 4.5×4NPA substrate solution was prepared in assay buffer and 10 μL was added to each reaction well, for a final assay concentration of 0.25 mM. Plate was spun for 1 minute at 1000 rpm before measuring absorbance using a CLARIOstar plate reader (BMG Labtech). A kinetic reading at 405 nm was done every minute for 30 minutes. Data was analyzed using the linear slope of the reaction progress curve and the average of the no-enzyme wells (background) was subtracted from the data. The background-subtracted slope data was converted to % activity using the average of wells with enzyme and DMSO vehicle. IC50s were calculated using GraphPad software (Sigmoidal dose response, variable slope equation). […] Table 6 is a table of potency measurements of MAGL inhibition measured for other compounds using the Potency Assay of Example 20 above, with the following modifications described in Table C. [table]

Row | Structure (SMILES) | IC50
8 | Cc1cc(C2CC3(C2)CN(Cc2cc(O)ccc2F)C3)n(-c2ccccc2C)n1 [Compound 150, 4-fluoro-3-((6-(3-methyl-1-(o-tolyl)-1H-pyrazol-5-yl)-2-azaspiro [3.3]heptan-2-yl)methyl)phenol] | > 10 µM

Same assay, conditions: Method 2: MAGL (10 nM) Cayman Chemical Enzyme

Row | Structure (SMILES) | IC50
9 | COC(c1ccn(C)c1)N1CC2(CC(c3cc(C)nn3-c3ccccc3C)C2)C1 (stereo not shown) [Compound 182] | > 10 µM
10 | COc1cc(F)ccc1CN1CC2(CC(c3cc(C)nn3-c3ccccc3C)C2)C1 [Compound 149] | > 10 µM
11 | COC(c1cccn1C)N1CC2(CC(c3cc(C)nn3-c3ccccc3C)C2)C1 (stereo not shown) [Compound 181] | > 10 µM

Same assay, conditions: Method 4: MAGL (15 nM) Cayman Chemical Enzyme

Row | Structure (SMILES) | IC50
12 | CCOc1cc(F)ccc1C(=O)N1CC2(CC(C(=O)N(C)c3cccnc3C)C2)C1 [Compound 198] | > 10 µM

Same assay, conditions: Method 6: Enzyme Conc 6, Reaction Biology (6 nM)

Row | Structure (SMILES) | IC50
13 | Cc1ccccc1-c1cc(C)n(C2CC3(C2)CN(C(=O)c2cc(O)ccc2F)C3)n1 [Compound 442] | > 10 µM
14 | Cc1ccccc1-c1ccnn1C1CC2(C1)CN(C(=O)c1cc(O)ccc1F)C2 [Compound 405] | > 10 µM
15 | Cc1cc(-c2ccccc2C)n(C2CC3(C2)CN(C(=O)c2cc(O)ccc2F)C3)n1 [Compound 406] | > 10 µM
16 | Cc1ccccc1-c1ccn(C2CC3(C2)CN(C(=O)c2cc(O)ccc2F)C3)n1 [Compound 441] | > 10 µM
17 | Cc1cnn(C2CC3(C2)CN(C(=O)c2cc(O)ccc2F)C3)c1-c1ccccc1Cl [Compound 404] | > 10 µM
18 | Cc1cn(C2CC3(C2)CN(C(=O)c2cc(O)ccc2F)C3)nc1-c1ccccc1Cl [Compound 416] | > 10 µM

Same assay, conditions: Method 12: Enzyme Conc 15, Reaction Biology (15 nM)

Row | Structure (SMILES) | IC50
19 | Cc1cn(C2CC3(C2)CN(C(=O)c2cc(O)ccc2C(F)(F)F)C3)nc1-c1ccccc1F [Compound 495] | > 10 µM
20 | Cc1cnn(C2CC3(C2)CN(C(=O)c2cc(O)ccc2C(F)(F)F)C3)c1-c1ccccc1F [Compound 494] | > 10 µM
21 | O=C(c1c(F)cccc1OC1CC1)N1CC2(CC(n3ncc(C(F)(F)F)c3-c3ccccc3F)C2)C1 [Compound 521] | > 10 µM

Same assay, conditions: Method 14: Enzyme Conc "0", Source "0"; Reaction Biology prep, 6 nM

Row | Structure (SMILES) | IC50
22 | Cc1cc(C2CC3(C2)CN(C(=O)c2cccc4c2CCO4)C3)n(-c2ccccc2C)n1 [Compound 403] | > 10 µM
23 | O=C(c1cc(O)ccc1F)N1CC2(CC(C(=O)N3CCOCC3)C2)C1 [Compound 384] | > 10 µM
24 | Cc1cc(C2CC3(C2)CN(C(=O)c2ccc4c(c2)OCC4)C3)n(-c2ccccc2C)n1 [Compound 402] | > 10 µM
25 | Cc1cc(C2CC3(C2)CN(C(=O)c2cc4c(cc2F)CCO4)C3)n(-c2ccccc2C)n1 [Compound 368] | > 10 µM
26 | O=C(c1cc(O)ccc1F)N1CC2(CC(C(=O)N3CCC4(COC4)C3)C2)C1 [Compound 391] | > 10 µM
27 | O=C(c1cc(O)ccc1F)N1CC2(CC(C(=O)N3CCCC3)C2)C1 [Compound 388] | > 10 µM
28 | O=C(NCC1COC1)C1CC2(C1)CN(C(=O)c1cc(O)ccc1F)C2 [Compound 395] | > 10 µM
